# Measurements from EP2826473A1, “NOVEL USE OF PATCHOULOL” (Chengdu Huasun Group Inc., Ltd., priority 2012, dated 2013).
# Where a name gives a salt, the structure may show the parent alone. Read-outs that look alike come from different tables or passages of the source.
# Columns and labels:
# Assay type in all cases: cell-based
# [1] = tested on: Staphylococcus aureus MSSA; test: in vitro bacteriostatic activity, agar dilution MIC; settings: Staphylococcus aureus, MSSA
# Enterococcus faecalis = test: as above
# [2] = tested on: Staphylococcus epidermidis MSSE; test: as above
# Enterococcus faecium = test: as above
# [3] = tested on: Staphylococcus epidermidis ATCC 12228; test: in vitro bacteriostatic activity, agar dilution MIC, quality control strain; settings: ATCC12228
# Streptococcus pneumoniae = test: in vitro bacteriostatic activity, agar dilution MIC
# [4] = Staphylococcus aureus MSSA 12-15
# [5] = Staphylococcus aureus MSSA 12-18
# [6] = Staphylococcus aureus MSSA 12-21
# [7] = Staphylococcus aureus MSSA 12-11, read-out: MIC
# [8] = Staphylococcus aureus MSSA 12-13, read-out: MIC
# [9] = Staphylococcus aureus MSSA 12-14, read-out: MIC
# [10] = Staphylococcus aureus MSSA 12-16, read-out: MIC
# [11] = Staphylococcus aureus MSSA 12-17, read-out: MIC
# [12] = Staphylococcus aureus MSSA 12-19, read-out: MIC
# [13] = Staphylococcus aureus MSSA 12-20, read-out: MIC
# [14] = Enterococcus faecalis, ATCC29212, Enterococcus faecalis ATCC 29212, read-out: MIC
# [15] = Enterococcus faecalis, ATCC51299, Enterococcus faecalis (high endurance) ATCC 51299, read-out: MIC
# [16] = Enterococcus faecalis, Enterococcus faecalis 12-11, read-out: MIC
# [17] = Enterococcus faecalis, Enterococcus faecalis 12-12, read-out: MIC
# [18] = Enterococcus faecalis, Enterococcus faecalis 12-13, read-out: MIC
# [19] = Enterococcus faecalis, Enterococcus faecalis 12-14, read-out: MIC
# [20] = Enterococcus faecalis, Enterococcus faecalis 12-17, read-out: MIC
# [21] = Enterococcus faecalis, Enterococcus faecalis 12-18, read-out: MIC
# [22] = Enterococcus faecalis, Enterococcus faecalis 12-19, read-out: MIC
# [23] = Enterococcus faecalis, Enterococcus faecalis 12-20, read-out: MIC
# [24] = Enterococcus faecalis, Enterococcus faecalis 12-21, read-out: MIC
# [25] = Enterococcus faecalis, Enterococcus faecalis 12-22, read-out: MIC
# [26] = Staphylococcus epidermidis, Staphylococcus epidermidis MSSE 12-12, read-out: MIC
# [27] = Staphylococcus epidermidis, Staphylococcus epidermidis MSSE 12-13, read-out: MIC
# [28] = Staphylococcus epidermidis, Staphylococcus epidermidis MSSE 12-14, read-out: MIC
# [29] = Staphylococcus epidermidis, Staphylococcus epidermidis MSSE 12-15, read-out: MIC
# [30] = Staphylococcus epidermidis, Staphylococcus epidermidis MSSE 12-16, read-out: MIC
# [31] = Staphylococcus epidermidis, Staphylococcus epidermidis MSSE 12-17, read-out: MIC
# [32] = Staphylococcus epidermidis, Staphylococcus epidermidis MSSE 12-18, read-out: MIC
# [33] = Staphylococcus epidermidis, Staphylococcus epidermidis MSSE 12-19, read-out: MIC
# [34] = Enterococcus faecium, ATCC33186, Enterococcus faecium ATCC 33186, read-out: MIC
# [35] = Enterococcus faecium, Enterococcus faecium 12-7, read-out: MIC
# [36] = Enterococcus faecium, Enterococcus faecium 12-8, read-out: MIC
# [37] = Enterococcus faecium, Enterococcus faecium 12-9, read-out: MIC
# [38] = Enterococcus faecium, Enterococcus faecium 12-10, read-out: MIC
# [39] = Enterococcus faecium, Enterococcus faecium 12-11, read-out: MIC
# [40] = Enterococcus faecium, Enterococcus faecium 12-12, read-out: MIC
# [41] = Enterococcus faecium, Enterococcus faecium 12-13, read-out: MIC
# [42] = Enterococcus faecium, Enterococcus faecium 12-14, read-out: MIC
# [43] = Enterococcus faecium, Enterococcus faecium 12-15, read-out: MIC
# [44] = Enterococcus faecium, Enterococcus faecium 12-16, read-out: MIC
smiles,measurement,setting,value
"CO/N=C(\C(=O)N[C@@H]1C(=O)N2C(C(=O)[O-])=C(C[N+]3(C)CCCC3)CS[C@H]12)c1csc(N)n1 [cefepime, Cefepime hydrochloride]",MIC,[1]; Staphylococcus aureus MSSA 12-11,4 µg/mL
same,MIC,[1]; Staphylococcus aureus MSSA 12-13,4 µg/mL
same,MIC,[1]; Staphylococcus aureus MSSA 12-14,2 µg/mL
same,MIC,[1]; [4],2 µg/mL
same,MIC,[1]; Staphylococcus aureus MSSA 12-16,4 µg/mL
same,MIC,[1]; Staphylococcus aureus MSSA 12-17,4 µg/mL
same,MIC,[1]; [5],2 µg/mL
same,MIC,[1]; Staphylococcus aureus MSSA 12-19,2 µg/mL
same,MIC,[1]; Staphylococcus aureus MSSA 12-20,2 µg/mL
same,MIC,[1]; [6],4 µg/mL
same,MIC,Enterococcus faecalis; Enterococcus faecalis 12-11,>128 µg/mL
same,MIC,Enterococcus faecalis; Enterococcus faecalis 12-13,>128 µg/mL
same,MIC,"Enterococcus faecalis; Enterococcus faecalis, ATCC29212, Enterococcus faecalis ATCC 29212",16 µg/mL
same,MIC,"Enterococcus faecalis; Enterococcus faecalis, ATCC51299, Enterococcus faecalis (high endurance) ATCC 51299",32 µg/mL
same,MIC,"Enterococcus faecalis; Enterococcus faecalis, Enterococcus faecalis 12-12",4 µg/mL
same,MIC,"Enterococcus faecalis; Enterococcus faecalis, Enterococcus faecalis 12-14",8 µg/mL
same,MIC,"Enterococcus faecalis; Enterococcus faecalis, Enterococcus faecalis 12-17",32 µg/mL
same,MIC,"Enterococcus faecalis; Enterococcus faecalis, Enterococcus faecalis 12-18",16 µg/mL
same,MIC,"Enterococcus faecalis; Enterococcus faecalis, Enterococcus faecalis 12-19",16 µg/mL
same,MIC,"Enterococcus faecalis; Enterococcus faecalis, Enterococcus faecalis 12-20",16 µg/mL
same,MIC,"Enterococcus faecalis; Enterococcus faecalis, Enterococcus faecalis 12-21",16 µg/mL
same,MIC,"Enterococcus faecalis; Enterococcus faecalis, Enterococcus faecalis 12-22",32 µg/mL
same,MIC,"[2]; Staphylococcus epidermidis, Staphylococcus epidermidis MSSE 12-11",1 µg/mL
same,MIC,"[2]; Staphylococcus epidermidis, Staphylococcus epidermidis MSSE 12-12",1 µg/mL
same,MIC,"[2]; Staphylococcus epidermidis, Staphylococcus epidermidis MSSE 12-13",1 µg/mL
same,MIC,"[2]; Staphylococcus epidermidis, Staphylococcus epidermidis MSSE 12-14",16 µg/mL
same,MIC,"[2]; Staphylococcus epidermidis, Staphylococcus epidermidis MSSE 12-15",16 µg/mL
same,MIC,"[2]; Staphylococcus epidermidis, Staphylococcus epidermidis MSSE 12-16",0.25 µg/mL
same,MIC,"[2]; Staphylococcus epidermidis, Staphylococcus epidermidis MSSE 12-17",2 µg/mL
same,MIC,"[2]; Staphylococcus epidermidis, Staphylococcus epidermidis MSSE 12-18",1 µg/mL
same,MIC,"[2]; Staphylococcus epidermidis, Staphylococcus epidermidis MSSE 12-19",1 µg/mL
same,MIC,"[2]; Staphylococcus epidermidis, Staphylococcus epidermidis MSSE 12-20",2 µg/mL
same,MIC,Enterococcus faecium; Enterococcus faecium 12-7,>128 µg/mL
same,MIC,Enterococcus faecium; Enterococcus faecium 12-8,>128 µg/mL
same,MIC,Enterococcus faecium; Enterococcus faecium 12-9,>128 µg/mL
same,MIC,Enterococcus faecium; Enterococcus faecium 12-10,>128 µg/mL
same,MIC,Enterococcus faecium; Enterococcus faecium 12-11,>128 µg/mL
same,MIC,Enterococcus faecium; Enterococcus faecium 12-12,>128 µg/mL
same,MIC,Enterococcus faecium; Enterococcus faecium 12-13,>128 µg/mL
same,MIC,Enterococcus faecium; Enterococcus faecium 12-14,>128 µg/mL
same,MIC,Enterococcus faecium; Enterococcus faecium 12-15,>128 µg/mL
same,MIC,Enterococcus faecium; Enterococcus faecium 12-16,>128 µg/mL
same,MIC,"Enterococcus faecium; Enterococcus faecium, ATCC33186, Enterococcus faecium ATCC 33186",16 µg/mL
same,MIC,[3]; Staphylococcus epidermidis,1 µg/mL
"CC1(C)S[C@@H]2[C@H](NC(=O)Cc3ccccc3)C(=O)N2[C@H]1C(=O)O [penicillin, Benzylpenicillin sodium]",MIC,[1]; [7],0.5 µg/mL
same,MIC,[1]; [8],0.5 µg/mL
same,MIC,[1]; [9],0.5 µg/mL
same,MIC,"[1]; Staphylococcus aureus MSSA 12-15, read-out: MIC",0.25 µg/mL
same,MIC,[1]; [10],0.5 µg/mL
same,MIC,[1]; [11],0.125 µg/mL
same,MIC,"[1]; Staphylococcus aureus MSSA 12-18, read-out: MIC",0.25 µg/mL
same,MIC,[1]; [12],0.25 µg/mL
same,MIC,[1]; [13],0.5 µg/mL
same,MIC,"[1]; Staphylococcus aureus MSSA 12-21, read-out: MIC",0.25 µg/mL
same,MIC,Enterococcus faecalis; [14],1 µg/mL
same,MIC,Enterococcus faecalis; [15],1 µg/mL
same,MIC,Enterococcus faecalis; [16],> 128 µg/mL
same,MIC,Enterococcus faecalis; [17],1 µg/mL
same,MIC,Enterococcus faecalis; [18],32 µg/mL
same,MIC,Enterococcus faecalis; [19],1 µg/mL
same,MIC,Enterococcus faecalis; [20],2 µg/mL
same,MIC,Enterococcus faecalis; [21],2 µg/mL
same,MIC,Enterococcus faecalis; [22],2 µg/mL
same,MIC,Enterococcus faecalis; [23],2 µg/mL
same,MIC,Enterococcus faecalis; [24],2 µg/mL
same,MIC,Enterococcus faecalis; [25],1 µg/mL
same,MIC,"[2]; Staphylococcus epidermidis, Staphylococcus epidermidis MSSE 12-11, read-out: MIC",0.03 µg/mL
same,MIC,[2]; [26],0.06 µg/mL
same,MIC,[2]; [27],0.5 µg/mL
same,MIC,[2]; [28],8 µg/mL
same,MIC,[2]; [29],8 µg/mL
same,MIC,[2]; [30],0.06 µg/mL
same,MIC,[2]; [31],0.03 µg/mL
same,MIC,[2]; [32],0.06 µg/mL
same,MIC,[2]; [33],0.06 µg/mL
same,MIC,"[2]; Staphylococcus epidermidis, Staphylococcus epidermidis MSSE 12-20, read-out: MIC",0.03 µg/mL
same,MIC,Enterococcus faecium; [34],2 µg/mL
same,MIC,Enterococcus faecium; [35],128 µg/mL
same,MIC,Enterococcus faecium; [36],> 128 µg/mL
same,MIC,Enterococcus faecium; [37],128 µg/mL
same,MIC,Enterococcus faecium; [38],> 128 µg/mL
same,MIC,Enterococcus faecium; [39],128 µg/mL
same,MIC,Enterococcus faecium; [40],> 128 µg/mL
same,MIC,Enterococcus faecium; [41],> 128 µg/mL
same,MIC,Enterococcus faecium; [42],> 128 µg/mL
same,MIC,Enterococcus faecium; [43],128 µg/mL
same,MIC,Enterococcus faecium; [44],128 µg/mL
same,MIC,"[3]; Staphylococcus epidermidis ATCC 12228, read-out: MIC",0.5 µg/mL
same,MIC,"Streptococcus pneumoniae; ATCC49619, Streptococcus pneumonia ATCC 49619",0.2 µg/mL
same,MIC,Streptococcus pneumoniae; Streptococcus pneumonia 12-6,0.05 µg/mL
same,MIC,Streptococcus pneumoniae; Streptococcus pneumonia 12-7,0.1 µg/mL
same,MIC,Streptococcus pneumoniae; Streptococcus pneumonia 12-8,0.1 µg/mL
same,MIC,Streptococcus pneumoniae; Streptococcus pneumonia 12-9,0.1 µg/mL
same,MIC,Streptococcus pneumoniae; Streptococcus pneumonia 12-10,0.2 µg/mL
same,MIC,Streptococcus pneumoniae; Streptococcus pneumoniae 12-1,0.1 µg/mL
same,MIC,Streptococcus pneumoniae; Streptococcus pneumoniae 12-2,0.2 µg/mL
same,MIC,Streptococcus pneumoniae; Streptococcus pneumoniae 12-3,0.1 µg/mL
same,MIC,Streptococcus pneumoniae; Streptococcus pneumoniae 12-4,0.4 µg/mL
same,MIC,Streptococcus pneumoniae; Streptococcus pneumoniae 12-5,0.05 µg/mL
"CC[C@H]1OC(=O)[C@H](C)[C@@H](O[C@H]2C[C@@](C)(OC)[C@@H](O)[C@H](C)O2)[C@H](C)[C@@H](O[C@@H]2O[C@H](C)C[C@H](N(C)C)[C@H]2O)[C@](C)(O)C[C@@H](C)CN(C)[C@H](C)[C@@H](O)[C@]1(C)O [azithromycin, Azithromycin]",MIC,[1]; [7],> 128 µg/mL
same,MIC,[1]; [8],0.25 µg/mL
same,MIC,[1]; [9],> 128 µg/mL
same,MIC,[1]; [4],0.125 µg/mL
same,MIC,[1]; [10],> 128 µg/mL
same,MIC,[1]; [11],> 128 µg/mL
same,MIC,[1]; [5],128 µg/mL
same,MIC,[1]; [12],> 128 µg/mL
same,MIC,[1]; [13],> 128 µg/mL
same,MIC,[1]; [6],128 µg/mL
same,MIC,Enterococcus faecalis; [14],4 µg/mL
same,MIC,Enterococcus faecalis; [15],> 128 µg/mL
same,MIC,Enterococcus faecalis; [16],> 128 µg/mL
same,MIC,Enterococcus faecalis; [17],4 µg/mL
same,MIC,Enterococcus faecalis; [18],> 128 µg/mL
same,MIC,Enterococcus faecalis; [19],1 µg/mL
same,MIC,Enterococcus faecalis; [20],> 128 µg/mL
same,MIC,Enterococcus faecalis; [21],> 128 µg/mL
same,MIC,Enterococcus faecalis; [22],> 128 µg/mL
same,MIC,Enterococcus faecalis; [23],> 128 µg/mL
same,MIC,Enterococcus faecalis; [24],> 128 µg/mL
same,MIC,Enterococcus faecalis; [25],> 128 µg/mL
same,MIC,[2]; Staphylococcus epidermidis,128 µg/mL
same,MIC,[2]; Staphylococcus epidermidis MSSE 12-20,128 µg/mL
same,MIC,[2]; [26],4 µg/mL
same,MIC,[2]; [27],> 128 µg/mL
same,MIC,[2]; [28],8 µg/mL
same,MIC,[2]; [29],8 µg/mL
same,MIC,[2]; [30],64 µg/mL
same,MIC,[2]; [31],8 µg/mL
same,MIC,[2]; [32],16 µg/mL
same,MIC,[2]; [33],16 µg/mL
same,MIC,Enterococcus faecium; [34],2 µg/mL
same,MIC,Enterococcus faecium; [35],> 128 µg/mL
same,MIC,Enterococcus faecium; [36],1 µg/mL
same,MIC,Enterococcus faecium; [37],> 128 µg/mL
same,MIC,Enterococcus faecium; [38],> 128 µg/mL
same,MIC,Enterococcus faecium; [39],> 128 µg/mL
same,MIC,Enterococcus faecium; [40],> 128 µg/mL
same,MIC,Enterococcus faecium; [41],> 128 µg/mL
same,MIC,Enterococcus faecium; [42],> 128 µg/mL
same,MIC,Enterococcus faecium; [43],> 128 µg/mL
same,MIC,Enterococcus faecium; [44],> 128 µg/mL
same,MIC,[3]; Staphylococcus epidermidis,0.125 µg/mL
